Test results from patent US20210338846A1, “COMPETITIVE PROSTATE-SPECIFIC MEMBRANE ANTIGEN (PSMA) BINDING AGENTS FOR REDUCTION OF NON-TARGET ORGAN UPTAKE OF RADIOLABELED PSMA INHIBITORS FOR PSMA POSITIVE TUMOR IMAGING AND RADIOPHARMACEUTICAL THERAPY” (The Johns Hopkins University, priority 2018, published 2021).
Like-named read-outs stand apart in the source and are kept apart here.

Legend:
PSMA = PSMA (Homo sapiens, UniProt Q04609); settings: read-out: Ki (PSMA inhibition); cited from earlier work
PSMA+PiP tumors = settings: cited from earlier work; for renal uptake (in words) / uptake in PSMA+ PiP tumors (in words): radiolabeled version
[1] = tested on: PSMA+ PC-3 PiP and PSMA− PC-3 flu tumors; test: Biodistribution of [177Lu]VK-03-27 without and with co-injection of competing inhibitor VK-03-27; assay type: in vivo, mice; settings: 2 Hour
[2] = tested on: PSMA+ PC-3 PiP and PSMA− PC-3 flu tumors; settings: for Biodistribution: Blood / Biodistribution: Flu tumor / Biodistribution: Lacrimal gland / Biodistribution: PiP tumor / Biodistribution: Salivary gland / Biodistribution: kidneys / Biodistribution: spleen / Biodistribution: stomach: without competitive inhibitor
[3] = mouse treated with 1.5 MBq; from Kiess et al., 2016; cited from earlier work

Sequence of PSMA (Q04609 whole entry): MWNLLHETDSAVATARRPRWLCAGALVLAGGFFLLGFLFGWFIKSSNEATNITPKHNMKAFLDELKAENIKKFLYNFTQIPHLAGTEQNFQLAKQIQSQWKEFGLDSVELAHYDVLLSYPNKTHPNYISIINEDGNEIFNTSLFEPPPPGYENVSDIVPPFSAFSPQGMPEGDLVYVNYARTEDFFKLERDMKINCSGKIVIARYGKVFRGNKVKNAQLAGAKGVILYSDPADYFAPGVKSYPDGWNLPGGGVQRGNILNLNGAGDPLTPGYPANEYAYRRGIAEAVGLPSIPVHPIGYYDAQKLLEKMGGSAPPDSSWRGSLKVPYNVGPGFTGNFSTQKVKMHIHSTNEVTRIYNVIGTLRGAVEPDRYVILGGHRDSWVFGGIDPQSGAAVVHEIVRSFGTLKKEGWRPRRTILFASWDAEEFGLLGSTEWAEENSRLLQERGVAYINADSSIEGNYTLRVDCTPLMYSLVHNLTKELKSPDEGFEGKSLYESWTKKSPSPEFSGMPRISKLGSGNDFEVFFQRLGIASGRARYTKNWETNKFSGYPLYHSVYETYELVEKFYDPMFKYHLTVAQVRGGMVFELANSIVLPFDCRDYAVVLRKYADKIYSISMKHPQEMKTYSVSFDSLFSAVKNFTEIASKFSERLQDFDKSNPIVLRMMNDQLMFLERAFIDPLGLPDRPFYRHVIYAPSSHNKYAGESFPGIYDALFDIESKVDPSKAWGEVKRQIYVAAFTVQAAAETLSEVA

O=C(O)CCC(OC(=O)NC(CCCCNC(=O)c1ccc(I)cc1F)C(=O)O)C(=O)O (stereo not drawn) [Compound 24]
Ki (PSMA): 0.2 nM | renal uptake (in words) (PSMA+PiP tumors): high initial renal uptake that decreases over time | uptake in PSMA+ PiP tumors (in words) (PSMA+PiP tumors): high uptake

O=C(O)CCC(OC(=O)NC(CCCCNC(=O)c1ccc(Br)cc1F)C(=O)O)C(=O)O (stereo not drawn) [Compound 25]
Ki (PSMA): 0.1 nM | renal uptake (in words) (PSMA+PiP tumors): high initial renal uptake that decreases over time | uptake in PSMA+ PiP tumors (in words) (PSMA+PiP tumors): high uptake

O=C(O)CC[C@H](NC(=O)N[C@@H](CCC(=O)NCCc1ccc(I)cc1)C(=O)O)C(=O)O [HS-549]
renal uptake (in words) (PSMA+PiP tumors): high initial kidney uptake | uptake in PSMA+ PiP tumors (in words) (PSMA+PiP tumors): high PSMA+Pip tumor uptake

O=C(O)CC[C@H](NC(=O)N[C@@H](CCCCNC(=O)c1ccc(I)cc1)C(=O)O)C(=O)O [YC-I-27]
uptake and retention in kidneys (PSMA+PiP tumors; radiolabeled form, out to two days post-injection): > 100 % ID/g | uptake in PSMA+ PiP tumors (in words) (PSMA+PiP tumors): high and prolonged uptake

O=C([O-])CN1CCN(CC(=O)[O-])CCN(C(CCC(=O)NCCCCC(=O)N(CCCC[C@H](NC(=O)N[C@@H](CCC(=O)O)C(=O)O)C(=O)O)Cc2ccc(Br)cc2)C(=O)O)CCN(CC(=O)[O-])CC1.[177Lu+3] (stereo partly drawn) [[^177Lu]VK-03-27]
Biodistribution: Blood ([1]; No CI): 0.43 ± 0.6 % injected dose/gram | Biodistribution: Flu tumor ([1]; No CI): 0.4 ± 0.02 % injected dose/gram | Biodistribution: Lacrimal Glands ([1]; No CI): 1.06 ± 0.37 % injected dose/gram | Biodistribution: PiP tumor ([1]; No CI): 55 ± 12 % injected dose/gram | Biodistribution: Salivary gland ([1]; No CI): 1.2 ± 0.25 % injected dose/gram | Biodistribution: kidneys ([1]; No CI): 140 ± 21 % injected dose/gram | Biodistribution: spleen ([1]; No CI): 8.0 ± 2.8 % injected dose/gram | Biodistribution: stomach ([1]; No CI): 0.44 ± 0.6 % injected dose/gram | Biodistribution: Blood ([1]; co-injection 2 nmole VK-03-27): 0.23 ± 0.5 % injected dose/gram | Biodistribution: Flu tumor ([1]; co-injection 2 nmole VK-03-27): 0.32 ± 0.05 % injected dose/gram | Biodistribution: Lacrimal Glands ([1]; co-injection 2 nmole VK-03-27): 0.29 ± 0.08 % injected dose/gram | Biodistribution: PiP tumor ([1]; co-injection 2 nmole VK-03-27): 37 ± 8 % injected dose/gram | Biodistribution: Salivary gland ([1]; co-injection 2 nmole VK-03-27): 0.24 ± 0.04 % injected dose/gram | Biodistribution: kidneys ([1]; co-injection 2 nmole VK-03-27): 10.6 ± 0.6 % injected dose/gram | Biodistribution: spleen ([1]; co-injection 2 nmole VK-03-27): 0.8 ± 0.17 % injected dose/gram | Biodistribution: stomach ([1]; co-injection 2 nmole VK-03-27): 0.23 ± 0.09 % injected dose/gram | Biodistribution: Blood ([1]; co-injection 20 nmole VK-03-27): 0.25 ± 0.14 % injected dose/gram | Biodistribution: Flu tumor ([1]; co-injection 20 nmole VK-03-27): 0.27 ± 0.05 % injected dose/gram | Biodistribution: Lacrimal Glands ([1]; co-injection 20 nmole VK-03-27): 0.26 ± 0.05 % injected dose/gram | Biodistribution: PiP tumor ([1]; co-injection 20 nmole VK-03-27): 26 ± 4 % injected dose/gram | Biodistribution: Salivary gland ([1]; co-injection 20 nmole VK-03-27): 0.16 ± 0.04 % injected dose/gram | Biodistribution: kidneys ([1]; co-injection 20 nmole VK-03-27): 3.5 ± 0.56 % injected dose/gram | Biodistribution: spleen ([1]; co-injection 20 nmole VK-03-27): 0.39 ± 0.18 % injected dose/gram | Biodistribution: stomach ([1]; co-injection 20 nmole VK-03-27): 0.45 ± 0.35 % injected dose/gram | Biodistribution: Blood ([1]; co-injection 40 nmole VK-03-27): 0.16 ± 0.03 % injected dose/gram | Biodistribution: Flu tumor ([1]; co-injection 40 nmole VK-03-27): 0.25 ± 0.05 % injected dose/gram | Biodistribution: Lacrimal Glands ([1]; co-injection 40 nmole VK-03-27): 0.26 ± 0.11 % injected dose/gram | Biodistribution: PiP tumor ([1]; co-injection 40 nmole VK-03-27): 18 ± 3 % injected dose/gram | Biodistribution: Salivary gland ([1]; co-injection 40 nmole VK-03-27): 0.25 ± 0.21 % injected dose/gram | Biodistribution: kidneys ([1]; co-injection 40 nmole VK-03-27): 2.15 ± 0.1 % injected dose/gram | Biodistribution: spleen ([1]; co-injection 40 nmole VK-03-27): 0.21 ± 0.1 % injected dose/gram | Biodistribution: stomach ([1]; co-injection 40 nmole VK-03-27): 0.42 ± 0.21 % injected dose/gram | Biodistribution: Blood ([2]; 2 Hour): 1.2 ± 1.7 % injected dose/gram | Biodistribution: Flu tumor ([2]; 2 Hour): 5.8 ± 9.6 % injected dose/gram | Biodistribution: Lacrimal gland ([2]; 2 Hour): 5.8 ± 9.6 % injected dose/gram | Biodistribution: PiP tumor ([2]; 2 Hour): 50 ± 14 % injected dose/gram | Biodistribution: Salivary gland ([2]; 2 Hour): 3.4 ± 4.4 % injected dose/gram | Biodistribution: kidneys ([2]; 2 Hour): 150 ± 32 % injected dose/gram | Biodistribution: spleen ([2]; 2 Hour): 7.4 ± 3.0 % injected dose/gram | Biodistribution: stomach ([2]; 2 Hour): 0.66 ± 0.75 % injected dose/gram | Biodistribution: Blood ([2]; 8 Hour): 0.06 ± 0.02 % injected dose/gram | Biodistribution: Flu tumor ([2]; 8 Hour): 0.25 ± 0.05 % injected dose/gram | Biodistribution: Lacrimal gland ([2]; 8 Hour): 0.25 ± 0.05 % injected dose/gram | Biodistribution: PiP tumor ([2]; 8 Hour): 41 ± 9 % injected dose/gram | Biodistribution: Salivary gland ([2]; 8 Hour): 0.34 ± 0.18 % injected dose/gram | Biodistribution: kidneys ([2]; 8 Hour): 52 ± 18 % injected dose/gram | Biodistribution: spleen ([2]; 8 Hour): 1.2 ± 0.6 % injected dose/gram | Biodistribution: stomach ([2]; 8 Hour): 0.32 ± 0.31 % injected dose/gram | Biodistribution: Blood ([2]; 24 Hour): 0.03 ± 0.01 % injected dose/gram | Biodistribution: Flu tumor ([2]; 24 Hour): 0.12 ± 0.02 % injected dose/gram | Biodistribution: Lacrimal gland ([2]; 24 Hour): 0.12 ± 0.02 % injected dose/gram | Biodistribution: PiP tumor ([2]; 24 Hour): 49 ± 7 % injected dose/gram | Biodistribution: Salivary gland ([2]; 24 Hour): 0.16 ± 0.06 % injected dose/gram | Biodistribution: kidneys ([2]; 24 Hour): 5.9 ± 2.7 % injected dose/gram | Biodistribution: spleen ([2]; 24 Hour): 0.28 ± 0.13 % injected dose/gram | Biodistribution: stomach ([2]; 24 Hour): 0.14 ± 0.03 % injected dose/gram | PSMA+ PiP tumor uptake (in words) ([2]; Table 7): high PSMA+PipTumor uptake | renal uptake (in words) ([2]; Table 7): very high early renal uptake

O=C(O)CC[C@H](NC(=O)NC(CCCCNC(=O)c1ccc([211At])cc1)C(=O)O)C(=O)O (stereo partly drawn) [[^211At]DCIBzL, (2S)-2-(3-(1-Carboxy-5-(4-[^211At]astatobenzamido)pentyl)ureido)-pentanedioic acid]
renal histopathology [3]: severe renal damage
